Laboratory results as given in patent US20030036633A1, “DNA encoding bradykinin B1 receptor” (Merck & Co., Inc., priority 1994, published 2003).
Entries after “also recorded” stand apart in the source; their conditions may differ. Like-named read-outs stand apart in the source and are kept apart here. Residues, ends and D or L forms follow the SMILES beside them.

Assays:
[1] = target: T1, cloned human B1 bradykinin receptor in transiently transfected COS-7 cells (COS 33E9) (Homo sapiens, UniProt P46663); experiment: Displacement of 1 nM [3H]des-Arg10kallidin, membrane binding assay, COS 33E9; details: for affinity for / displacement of [3H]des-Arg10kallidin from the cloned receptor, in words: cloned B1 receptor expressed in COS-7 cells
T1 construct: the full-length open reading frame of the B1 DNA (encoding a protein of about 40.4 kDa =about base 209 to about base 1267); expressed in transfected cells; host or cells: COS-7 cells, transient electroporation of clone 33E9 (pcDNA3 library vector)
T1 sequence (P46663 1-353): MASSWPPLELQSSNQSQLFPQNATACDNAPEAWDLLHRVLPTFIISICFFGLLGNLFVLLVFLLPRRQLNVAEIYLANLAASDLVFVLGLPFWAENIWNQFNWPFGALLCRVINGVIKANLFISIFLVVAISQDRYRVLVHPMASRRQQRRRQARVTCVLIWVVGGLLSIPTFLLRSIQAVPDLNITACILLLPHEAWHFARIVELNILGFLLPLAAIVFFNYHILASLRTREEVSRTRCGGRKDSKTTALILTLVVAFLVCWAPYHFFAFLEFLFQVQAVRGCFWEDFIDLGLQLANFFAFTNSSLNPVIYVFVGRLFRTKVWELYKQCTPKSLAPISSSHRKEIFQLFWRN
Protocol: Transient expression of the cloned B1 bradykinin receptor in COS-7 cells was accomplished by electroporation using a Biorad Gene Pulser. […] Binding assays were performed at room temperature for 45 minutes. Reactions were terminated by filtration using an Inotech cell harvester onto glass fiber filters (Inotech) that had been briefly soaked in 0.3% polyethyleneimine. The filters were washed five times with 1 ml per well of cold PBS and counted in a liquid scintillation counter. Alternatively, reactions were collected using a Tomtec cell harvester 96 onto 0.3% polyethyleneimine presoaked glass fiber filters (Pharmacia, printed filtermat for use with the 1205 Betaplate). The filter was washed five times with a total of 10 ml per well of cold 1× PBS, dried and sealed in a bag (Pharmacia) containing scintillation fluid. Counting was accomplished using a LKB1205 Betaplate liquid scintillation counter.

[2] = target: T2, B1 receptor in IMR-90 cells (Homo sapiens, UniProt P46663); experiment: Displacement of 1 nM [3H]des-Arg10kallidin, membrane binding assay, IMR-90
T2 construct: 33E9) with the B1 receptor in IMR-90 cells (IMR-90); endogenous in cells; host or cells: IMR-90 cells (ATCC CCL 186)
T2 sequence (P46663 1-353): T1 sequence (P46663 1-353)

B1 receptor = target: T3, B1 receptor (Homo sapiens, UniProt P46663); experiment: Electrophysiology of cRNA-injected Xenopus oocytes monitoring the Ca2+ sensitive Cl- channel; type: cell-based; details: oocytes injected with cRNA of strongest positive pool
T3 construct: expressed in transfected cells; host or cells: Xenopus laevis oocytes injected with cRNA from a pool of about 800 library clones
T3 sequence (P46663 1-353): T1 sequence (P46663 1-353)

[3] = target: T4, B1 bradykinin receptor in IMR-90 cells (human, UniProt P46663 1-353); experiment: displacement of 1 nM [3H]des-Arg10kallidin, membrane binding assay, IMR-90 cells
T4 construct: whole, on cells; Endogenous receptor; also called B1 receptor expressed in IMR-90 cells
T4 sequence (looked up): T1 sequence (P46663 1-353)
Protocol: Binding assays were performed at room temperature for 45 minutes. Reactions were terminated by filtration using an Inotech cell harvester onto glass fiber filters (Inotech) that had been briefly soaked in 0.3% polyethyleneimine. The filters were washed five times with 1 ml per well of cold PBS and counted in a liquid scintillation counter. Alternatively, reactions were collected using a Tomtec cell harvester 96 onto 0.3% polyethyleneimine presoaked glass fiber filters (Pharmacia, printed filtermat for use with the 1205 Betaplate). The filter was washed five times with a total of 10 ml per well of cold 1× PBS, dried and sealed in a bag (Pharmacia) containing scintillation fluid. Counting was accomplished using a LKB₁₂₀₅ Betaplate liquid scintillation counter.
The IC₅₀'s were determined by the displacement of 1 nM [³H]des- Arg¹⁰kallidin in the membrane binding assay described above.

[4] = target: cloned human B1 bradykinin receptor (clone 33E9) (human) (UniProt P46663); experiment: displacement of 1 nM [3H]des-Arg10kallidin, membrane binding assay, COS-7 cells transiently transfected with clone 33E9
IMR-90 cells = experiment: IL-1beta treatment of IMR-90 cells, number of B1 bradykinin receptors; type: cell-based, human
[5] = target: T5, B1 bradykinin receptor present in human aorta (Homo sapiens, UniProt P46663); experiment: Affinity at B1 bradykinin receptor present in human aorta; type: binding; details: R.W.R, unpublished data
T5 construct: The B1 bradykinin receptor present in human aorta; from tissue; host or cells: human aorta
T5 sequence (P46663 1-353): T1 sequence (P46663 1-353)

[6] = displacement of 1 nM [3H]des-Arg10kallidin, membranes of transiently transfected COS-7 cells, read-out: IC50, COS 33E9
[7] = displacement of 1 nM [3H]des-Arg10kallidin, IMR-90 membranes, read-out: IC50, IMR-90

For NC(=O)CC[C@@H]1NC(=O)[C@H](Cc2ccccc2)NC(=O)[C@H](Cc2ccc(O)cc2)NC(=O)[C@@H](N)CSSC[C@@H](C(=O)N2CCC[C@H]2C(=O)N[C@@H](CCCN=C(N)N)C(=O)NCC(N)=O)NC(=O)[C@H](CC(N)=O)NC1=O [Arg Vasopressin], the IC50 [1] was over 10 µM and the IC50 [2] was over 10 µM.

In the case of CSCC[C@H](NC(=O)[C@H](CC(C)C)NC(=O)CNC(=O)[C@H](Cc1ccccc1)NC(=O)[C@H](Cc1ccccc1)NC(=O)[C@H](CCC(N)=O)NC(=O)[C@H](CCC(N)=O)NC(=O)[C@@H]1CCCN1C(=O)[C@H](CCCCN)NC(=O)[C@@H]1CCCN1C(=O)[C@@H](N)CCCN=C(N)N)C(N)=O [Substance P], the IC50 [1, 6] is reported as over 10 µM and the IC50 [2, 7] is reported as over 10 µM.

With des-Arg^10Leu^9kallidin the “block of des-Arg10kallidin response” value (B1 receptor) was “blocked” and the “affinity for / displacement of [3H]des-Arg10kallidin from the cloned receptor, in words” value (“affinity for / displacement” for short) [1] was “high affinity binding; also recorded: effectively displaces”.

des-Arg^10HOE 140 (peptide) was tested, and the IC50 [3] was 0.04 µM and the IC50 [4] was 0.094 µM.

In the case of IL-1β: cytokine IL-1β (R & D Systems), the “stimulation of the number of B1 bradykinin receptors” value (IMR-90 cells) is reported as “approximately 7 fold”.

For des-Arg^9Leu^8bradykinin, the “affinity for / displacement” value [1] was “high affinity binding”.

Compound CC[C@H](C)[C@H](NC(=O)[C@H](Cc1ccc(O)cc1)NC(=O)[C@@H]1CCCN1C(=O)[C@H](CCCNC(=N)N)NC(=O)[C@H](CCCNC(=N)N)NC(C)=O)C(=O)N[C@@H](CC(C)C)C(=O)O [Acetylated Neurotensin(8-13)] has an IC50 [1] of over 10 µM and an IC50 [2] of over 10 µM.

With “[des-Arg^10],[3,4-^3H(N)]-kallidin [[^3H]des-Arg^10kallidin]” the “affinity for / displacement” value [1] was “high affinity binding”.

Compound CC[C@H](C)[C@@H]1NC(=O)[C@H](Cc2ccc(O)cc2)NC(=O)[C@@H](N)CSSC[C@@H](C(=O)N2CCC[C@H]2C(=O)N[C@@H](CC(C)C)C(=O)NCC(N)=O)NC(=O)[C@H](CC(N)=O)NC(=O)[C@H](CCC(N)=O)NC1=O [Oxytocin] has an IC50 [1, 6] of over 10 µM and an IC50 [2, 7] of over 10 µM.

With CC[C@H](C)[C@H](NC(=O)[C@H](Cc1ccc(O)cc1)NC(=O)[C@@H](NC(=O)[C@H](CCCNC(=N)N)NC(=O)[C@@H](N)CC(=O)O)C(C)C)C(=O)N[C@@H](Cc1cnc[nH]1)C(=O)N1CCC[C@H]1C(=O)N[C@@H](Cc1ccccc1)C(=O)O [Angiotensin II] the IC50 [1, 6] was over 10 µM and the IC50 [2, 7] was over 10 µM.

Compound CC[C@H](C)[C@H](NC(=O)[C@H](CCCNC(=N)N)NC(=O)[C@H](CCCNC(=N)N)NC(=O)[C@H](CC(C)C)NC(=O)[C@H](Cc1ccccc1)NC(=O)CNC(=O)CNC(=O)[C@@H](N)Cc1ccc(O)cc1)C(=O)N[C@@H](CCCNC(=N)N)C(=O)N1CCC[C@H]1C(=O)N[C@@H](CCCCN)C(=O)N[C@@H](CC(C)C)C(=O)N[C@@H](CCCCN)C(=O)N[C@@H](Cc1c[nH]c2ccccc12)C(=O)N[C@@H](CC(=O)O)C(=O)N[C@@H](CC(N)=O)C(=O)N[C@@H](CCC(N)=O)C(=O)O [Dynorphin(1-17)] has an IC50 [1] of over 7 µM and an IC50 [2] of over 7 µM.

CC(C)C[C@H](NC(=O)[C@H](Cc1ccccc1)NC(=O)CNC(=O)CNC(=O)[C@@H](N)Cc1ccc(O)cc1)C(=O)O [Leu-Enkephalin] was tested, and the IC50 [1] was over 10 µM and the IC50 [2] was over 10 µM.

Compound N=C(N)NCCC[C@H](N)C(=O)N1CCC[C@H]1C(=O)N1CCC[C@H]1C(=O)NCC(=O)N[C@@H](Cc1ccccc1)C(=O)N[C@@H](CO)C(=O)N1CCC[C@H]1C(=O)O [Bradykinin(1-7)] (H-RPPGFSP-OH) has an IC50 [1] of over 10 µM and an IC50 [2] of over 10 µM.

Work on CC[C@H](C)[C@H](NC(=O)[C@H](CC(=O)O)NC(=O)[C@H](CC(C)C)NC(=O)[C@H](Cc1cnc[nH]1)NC(=O)[C@@H]1CSSC[C@H](N)C(=O)N[C@@H](CO)C(=O)N[C@H]2CSSC[C@H](NC(=O)[C@H](CCC(=O)O)NC(=O)[C@H](CCCCN)NC(=O)[C@H](CC(=O)O)NC(=O)[C@H](CCSC)NC(=O)[C@H](CC(C)C)NC(=O)[C@H](CO)NC(=O)[C@H](CO)NC2=O)C(=O)N[C@@H](C(C)C)C(=O)N[C@@H](Cc2ccc(O)cc2)C(=O)N[C@@H](Cc2ccccc2)C(=O)N1)C(=O)N[C@H](C(=O)N[C@@H](Cc1c[nH]c2ccccc12)C(=O)O)[C@@H](C)CC [Endothelin I] yielded an IC50 [1, 6] of over 1 µM and an IC50 [2, 7] of over 1 µM.

Work on N=C(N)NCCC[C@H](NC(=O)[C@H](Cc1ccccc1)NC(=O)[C@@H]1CCCN1C(=O)[C@H](CO)NC(=O)[C@H](Cc1ccccc1)NC(=O)CNC(=O)[C@@H]1CCCN1C(=O)[C@@H]1CCCN1)C(=O)O [Bradykinin(2-9)] (H-PPGFSPFR-OH; N-terminus and C-terminus assumed) yielded an IC50 [1, 6] of over 10 µM and an IC50 [2, 7] of over 10 µM.

Work on NC(N)=NCCC[C@@H](N)C(=O)N[C@@H](CCCN=C(N)N)C(=O)N1CCC[C@H]1C(=O)N1C[C@H](O)C[C@H]1C(=O)NCC(=O)N[C@@H](Cc1cccs1)C(=O)N[C@@H](CO)C(=O)N1Cc2ccccc2C[C@@H]1C(=O)N1[C@H](C(=O)N[C@@H](CCCN=C(N)N)C(=O)O)C[C@@H]2CCCC[C@@H]21 [Hoe 140] yielded an IC50 [1, 6] of over 10 µM and an IC50 [2, 7] of over 10 µM.

For NC(N)=NCCC[C@H](NC(=O)[C@H](Cc1ccccc1)NC(=O)[C@@H]1CCCN1C(=O)[C@H](CO)NC(=O)[C@H](Cc1ccccc1)NC(=O)CNC(=O)[C@@H]1CCCN1C(=O)[C@@H]1CCCN1C(=O)[C@@H](N)CCCN=C(N)N)C(=O)O [Bradykinin] (H-RPPGFSPFR-OH), the IC50 [1] was over 10 µM and the IC50 [2] was over 10 µM.

For des-Arg^9bradykinin, the “affinity for / displacement” value [1] was “relatively low affinity”, the “affinity for the B1 receptor in IMR-90 cells, in words” value ([2]; IMR-90 cells) was “relatively low affinity” and the affinity [5] was over 1000 nM.

In the case of des-Arg^10kallidin, the “agonist response of Ca2+ sensitive Cl- channel” value (B1 receptor) is reported as “produced a response”.
